Read-outs that look alike come from different tables or passages of the source.
Experiments:
[1] = target: T1, ABL1(E255K)-phosphorylated (Homo sapiens, UniProt P00519, E255K); assay: KINOMEscan competition binding assay; conditions: LL6 at 10 μM; read-out: Percent Control
T1 construct: purchased DiscoverX KINOMEscan
Method: (§1) To briefly summarize, Kd was measured by a competition binding assay that quantitatively measures the ability of a compound to compete with an immobilized ligand. […] Dose response curves of 11 points are obtained for Kd values, which are measured in duplicate. See more details in the cited references [39]-[42] and see also at www.discoverx.com.

ADCK3 = target: T2, ADCK3 (Homo sapiens, UniProt Q8NI60); assay: KINOMEscan competition binding assay; conditions: LL6 at 10 μM; read-out: Percent Control
T2 construct: purchased DiscoverX KINOMEscan
T2 sequence (Q8NI60 163-647): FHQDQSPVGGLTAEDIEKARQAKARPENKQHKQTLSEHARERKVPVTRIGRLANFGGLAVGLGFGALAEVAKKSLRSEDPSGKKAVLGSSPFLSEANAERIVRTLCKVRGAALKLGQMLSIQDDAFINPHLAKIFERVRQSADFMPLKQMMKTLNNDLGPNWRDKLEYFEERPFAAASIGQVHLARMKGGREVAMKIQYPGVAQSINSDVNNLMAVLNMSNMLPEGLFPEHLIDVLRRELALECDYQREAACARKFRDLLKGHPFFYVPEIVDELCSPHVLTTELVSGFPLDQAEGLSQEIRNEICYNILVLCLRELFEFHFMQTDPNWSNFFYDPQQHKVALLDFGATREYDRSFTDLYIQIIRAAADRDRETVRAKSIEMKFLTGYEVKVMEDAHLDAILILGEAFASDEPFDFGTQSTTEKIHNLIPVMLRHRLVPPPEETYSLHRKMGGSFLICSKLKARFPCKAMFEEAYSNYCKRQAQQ
Method: as §1

[2] = target: T3, ABL1(T315I)-phosphorylated (Homo sapiens, UniProt P00519, T315I); assay: KINOMEscan competition binding assay; conditions: LL6 at 10 μM; read-out: Percent Control
T3 construct: purchased DiscoverX KINOMEscan
Method: as §1

AKT2 = target: T4, AKT2 (Homo sapiens, UniProt P31751); assay: KINOMEscan competition binding assay; conditions: LL6 at 10 μM; read-out: Percent Control
T4 construct: purchased DiscoverX KINOMEscan
T4 sequence (P31751 whole entry): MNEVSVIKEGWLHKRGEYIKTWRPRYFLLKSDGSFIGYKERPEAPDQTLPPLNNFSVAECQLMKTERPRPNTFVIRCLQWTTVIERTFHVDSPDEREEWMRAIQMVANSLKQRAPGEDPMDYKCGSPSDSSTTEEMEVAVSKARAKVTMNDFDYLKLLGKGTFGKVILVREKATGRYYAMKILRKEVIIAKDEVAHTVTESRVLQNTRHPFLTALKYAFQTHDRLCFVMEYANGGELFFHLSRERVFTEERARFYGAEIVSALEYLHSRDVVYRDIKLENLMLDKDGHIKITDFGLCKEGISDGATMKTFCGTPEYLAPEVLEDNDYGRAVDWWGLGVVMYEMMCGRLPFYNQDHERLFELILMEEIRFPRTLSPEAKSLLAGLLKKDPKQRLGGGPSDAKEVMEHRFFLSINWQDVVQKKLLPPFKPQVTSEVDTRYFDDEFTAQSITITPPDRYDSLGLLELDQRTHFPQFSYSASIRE
Method: as §1

ACVR1B = target: T5, ACVR1B (Homo sapiens, UniProt P36896); assay: KINOMEscan competition binding assay; conditions: LL6 at 10 μM; read-out: Percent Control
T5 construct: purchased DiscoverX KINOMEscan
T5 sequence (P36896 24-505): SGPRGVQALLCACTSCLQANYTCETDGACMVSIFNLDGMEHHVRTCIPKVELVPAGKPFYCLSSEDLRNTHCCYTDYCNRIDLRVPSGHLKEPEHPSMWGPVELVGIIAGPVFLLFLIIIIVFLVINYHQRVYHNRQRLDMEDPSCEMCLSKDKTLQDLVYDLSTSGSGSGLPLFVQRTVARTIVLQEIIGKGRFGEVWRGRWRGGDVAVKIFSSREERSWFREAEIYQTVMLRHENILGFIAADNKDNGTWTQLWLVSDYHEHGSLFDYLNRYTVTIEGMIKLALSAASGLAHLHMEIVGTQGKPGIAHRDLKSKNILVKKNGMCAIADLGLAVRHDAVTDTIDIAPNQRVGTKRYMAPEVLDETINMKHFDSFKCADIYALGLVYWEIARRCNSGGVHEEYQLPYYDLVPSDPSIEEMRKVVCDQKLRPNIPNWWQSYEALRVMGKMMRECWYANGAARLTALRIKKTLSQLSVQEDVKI
Method: as §1

AURKB = target: T6, AURKB (Homo sapiens, UniProt Q96GD4); assay: KINOMEscan competition binding assay; conditions: LL6 at 10 μM; read-out: Percent Control
T6 construct: purchased DiscoverX KINOMEscan
T6 sequence (Q96GD4 whole entry): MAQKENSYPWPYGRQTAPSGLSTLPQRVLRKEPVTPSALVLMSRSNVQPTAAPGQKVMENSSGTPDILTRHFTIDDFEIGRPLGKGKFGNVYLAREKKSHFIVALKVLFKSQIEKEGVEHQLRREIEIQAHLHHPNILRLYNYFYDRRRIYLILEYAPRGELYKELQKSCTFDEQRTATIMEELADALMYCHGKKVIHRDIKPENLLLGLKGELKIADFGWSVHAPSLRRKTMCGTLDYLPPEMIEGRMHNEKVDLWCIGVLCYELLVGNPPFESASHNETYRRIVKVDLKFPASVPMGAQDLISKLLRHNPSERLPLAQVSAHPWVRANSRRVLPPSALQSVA
Method: as §1

AKT1 = target: T7, AKT1 (Homo sapiens, UniProt P31749); assay: KINOMEscan competition binding assay; conditions: LL6 at 10 μM; read-out: Percent Control
T7 construct: purchased DiscoverX KINOMEscan
T7 sequence (P31749 whole entry): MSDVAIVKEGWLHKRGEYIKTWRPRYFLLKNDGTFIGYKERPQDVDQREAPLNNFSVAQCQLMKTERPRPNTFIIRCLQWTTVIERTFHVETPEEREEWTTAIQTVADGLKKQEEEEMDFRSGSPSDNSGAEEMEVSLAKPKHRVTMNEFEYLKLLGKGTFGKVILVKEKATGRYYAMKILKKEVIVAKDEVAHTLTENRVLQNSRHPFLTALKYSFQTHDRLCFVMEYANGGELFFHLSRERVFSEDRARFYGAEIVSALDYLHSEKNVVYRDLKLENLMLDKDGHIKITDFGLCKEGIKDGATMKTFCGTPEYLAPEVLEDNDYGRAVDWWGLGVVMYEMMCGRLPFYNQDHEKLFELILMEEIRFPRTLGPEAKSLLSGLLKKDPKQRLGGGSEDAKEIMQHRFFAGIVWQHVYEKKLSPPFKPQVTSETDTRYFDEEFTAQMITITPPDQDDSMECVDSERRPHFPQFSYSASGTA
Method: as §1

ABL1-phosphorylated = target: T8, ABL1-phosphorylated (Homo sapiens, UniProt P00519); assay: KINOMEscan competition binding assay; conditions: LL6 at 10 μM; read-out: Percent Control
T8 construct: purchased DiscoverX KINOMEscan
Method: as §1

ABL1-nonphosphorylated = target: T9, ABL1-nonphosphorylated (Homo sapiens, UniProt P00519); assay: KINOMEscan competition binding assay; conditions: LL6 at 10 μM; read-out: Percent Control
T9 construct: purchased DiscoverX KINOMEscan
Method: as §1

HCC15 cells = assay: MTT assay, viability of HCC15 cells; type: cell-based; conditions: Homo sapiens, 72 h, three days, read-out: IC50 against the viability
Method: (§2) Cells were seeded into 96-well plates at a density of 1-2 × 10^3 cells/well and incubated for 24 h. Cells were treated with vehicle or various concentrations of test compounds for two (PC9 and PC9/ER cells) or three (other cells) days. Cells were further incubated with MTT solution (final concentration of 500 μg/mL) for 4 h at 37 °C. The formazan products were dissolved in dimethyl sulfoxide (DMSO), and the absorbance was measured at 570 nm. The data are presented as a percentage of the control group.

PC9/ER cells = assay: MTT assay, viability of erlotinib-resistant PC9/ER cells; type: cell-based; conditions: Homo sapiens, PC-9/ER, 48 h, two days, 5% FBS, read-out: IC50 against the viability
Source text: Human lung cancer cell lines (A549, H1299, H1993, H1944, H226B, H226Br, H460, H522, HCC15, and PC9), a diploid human lung fibroblast cell line (Wi38), and the Lewis lung carcinoma (LLC) cell line were purchased from the American Type Culture Collection (ATCC, Manassas, VA, USA) or kindly provided by Dr. John V. Heymach (MD Anderson Cancer Center, Houston, TX, USA). Human retinal pigment epithelial (RPE) cells were kindly provided by Dr. Jeong Hun Kim (College of Medicine, Seoul National University, Seoul, Republic of Korea). HT-22 cells were provided by Dr. Dong Gyu Jo (College of Pharmacy, Sungkyunkwan University, Suwon, Republic of Korea). Lung cancer cells were cultured in RPMI 1640 medium supplemented with 10% fetal bovine serum (FBS) and antibiotics (Welgene, Gyeongsan-si, Republic of Korea). LLC, HT-22, and Wi38 cells were maintained in DMEM supplemented with 10% FBS and antibiotics. RPE cells were maintained in DMEM/F12 supplemented with 10% FBS and antibiotics. […]
Cells were seeded into 96-well plates at a density of 1-2 × 10^3 cells/well and incubated for 24 h. […] The formazan products were dissolved in dimethyl sulfoxide (DMSO), and the absorbance was measured at 570 nm. […]

Wi38 cells = assay: MTT assay, viability of Wi38 human lung fibroblasts; type: cell-based; conditions: WI-38, 72 h; Wi38 human lung fibroblasts, MTT assay, three days; read-out: IC50 against the viability
Method: as §2

[3] = as above; type: cell-based; conditions: human, Wi38 lung fibroblasts; Wi38, 10 μM; read-out: percentage of cell viability
Method: as §2

[4] = Pharmacokinetic study in rats; type: in vivo, SD rats
Method: The pharmacokinetic properties of LL6 were investigated in SD rats (n = 3). The left femoral artery and vein were catheterized with polyethylene tube (Intramedic^TM PE-50; Becton-Dickinson Diagnostics, MD, USA) under Zoletil (Virbac, Carros, France) anesthesia (50 mg/kg, intramuscular injection). LL6 was dissolved in DMSO/PEG 400/normal saline mixture (35:35:30, v/v/v) and single dose solution (1 mg/kg) was administered to rat intravenously. Approximately 150 µL of blood samples were collected via femoral artery at predetermined time (1, 3, 5, 10, 15, 30, 60, 120 and 180 min) and equivalent volume of normal saline solution with 20 U/mL of heparin was replenished to prevent blood coagulation. After centrifugation of the sample at 16,000 × g for 5 min, 50 µL aliquot of plasma samples were stored at -20 °C until HPLC-MS/MS analysis. The Pharmacokinetic parameters, including terminal half-life (T½), area under the plasma concentration-time curve from time zero to time last (AUClast), area under the plasma concentration-time curve from time zero to time infinity (AUCinf), volume of distribution at steady-state (Vss) and mean residence time (MRT) were calculated using non-compartmental analysis (WinNonlin, version 3.1, NCA 201; Pharsight, Mountain View, CA, USA).

H522 cells = assay: MTT assay, viability of H522 cells; type: cell-based; conditions: Homo sapiens, NCI-H522, 72 h, three days, read-out: IC50 against the viability
Method: as §2

NSCLC cell lines = assay: MTT assay, viability of various NSCLC cell lines; type: cell-based; conditions: Homo sapiens; NSCLC cells with various genetic backgrounds and histologies
Method: as §2

[5] = SD, rat, plasma, rats, intravenous, 1 mg/kg

remaining binding at 10 µM [1]: 92% | remaining binding at 10 µM (ADCK3): 67% | remaining binding at 10 µM [2]: 100% | remaining binding at 10 µM (AKT2): 77% | remaining binding at 10 µM (ACVR1B): 50% | remaining binding at 10 µM (AURKB): 55% | remaining binding at 10 µM (AKT1): 100% | remaining binding at 10 µM (ABL1-phosphorylated): 62% | remaining binding at 10 µM (ABL1-nonphosphorylated): 61% | IC50 (HCC15 cells): 3.73 µM | IC50 (PC9/ER cells): 8.61 µM | C0 ([4]; SD, rat, plasma, 1 mg/kg, rats, intravenous, read-out: theoretical initial plasma concentration): 33.3 µM | AUC(0-inf) [4, 5]: 852 ng·h/mL | AUC(0-t) [4, 5]: 850 ng·h/mL | MRT [4, 5]: 20.3 min | clearance [4, 5]: 19.3 ± 1.2 mL/min/kg | half-life [4, 5]: 29.1 ± 10 min | C0 ([4]; SD, rat, plasma, rats, intravenous, 1 mg/kg, read-out: C0 (theoretical initial plasma concentration)): 22700 ng/mL | Vd ([4]; SD, rat, plasma, rats, intravenous, 1 mg/kg, read-out: Vss): 0.392 ± 0.186 L/kg | elimination in plasma ([4]; rats, intravenous): rapid | oral bioavailability ([4]; suggested by the pharmacokinetic study): poor | IC50 (H522 cells): 3.55 µM
Compound: Nc1ncnc2c1c(-c1ccc(Cl)cc1)nn2CCn1cc(COc2ccc(Nc3nccc(Nc4cnc5ccccc5c4)n3)cc2)nn1 [LL6]
IC50 (Wi38 cells): > 10 µM | viability at 3 days, 10 µM [3]: > 60% | IC50 (NSCLC cell lines): ~2.5 µM
